Laboratory results reported in patent publication US20250135022A1, “METHODS FOR THE USE OF A B7-H3 ANTIBODY-DRUG CONJUGATE IN COMBINATION WITH A PD-1 X CTLA-4 BISPECIFIC MOLECULE” (MACROGENICS, INC., priority 2022, published 2025).

Legend:
Calu-6 lung cancer cells = test: Anti-tumor activity against subcutaneously implanted Calu-6 xenograft in CD-1 Nude mouse model; type: in vivo, CD-1 Nude mice; design: key to Anti-Tumor Activity: Highly Active: A T/C<10% is considered highly active; Active: a T/C≤42% is the minimum level of anti-tumor activity; Inactive: a T/C value of >42% is inactive
Experimental: In brief, ˜5×10^6 tumor cells (suspended in 1:1 media and MATRIGEL®) were subcutaneously implanted into the flank of female CD-1 Nude mice (homozygous; Charles River Laboratories). When tumors had reached a volume of approximately 100-235 mm3 (average 172 mm^3) on day 21, the mice were randomized and MGC018 or control vehicle were administered intravenously. In these studies, mice were administered either a single dose (12 mg/kg, QW×1) of MGC018 or a fractionated dose of MGC018 (0.3 mg/kg, 1 mg/kg, or 3 mg/kg) once a week for 4 weeks (QW×4W). Vehicle was administered as a control on day 21. Tumors were measured twice weekly by orthogonal measurements with electronic calipers, with tumor volumes calculated as: (length×width×height)/2. The tumor volume (relative to control) was determined (“T/C”). A finding that the tumor volume of treated animals had decreased to ≤5 mm^3 during the study period was considered to denote a Complete Regression (“CR”) and a Partial Regression (“PR”) was defined when tumors were reduced by 50% or greater from day of dosing at any point during the study.

[1] = Population pharmacokinetic (PPK) modeling of clinical PK data from a dose escalation trial; type: in vivo, human
Experimental: To analyze the pharmacokinetics of single and fractionated dose administration of MGC018, population pharmacokinetic (PPK) modeling was performed on clinical PK data from a dose escalation trial of MGC018. The initial model was based on data from 52 patients (516 ADC observations, 495 payload observations) and later updated with data from a total of 122 patients. MGC018 concentration values below quantification limit (BQL) were excluded from the analysis but were retained (commented out) in the data set.
The PPK analysis was conducted via nonlinear mixed-effects modeling with INTERACTION option (FOCEI) method using the NONMEM software, Version 7.5.0 (ICON Development Solutions). A quasi-steady-state (QSS) approximation of the target-mediated drug disposition (TMDD) model was used to describe the observed ADC data. All clearance and volume parameters were scaled allometrically. Goodness-of-fit plots and diagnostics (including standard error of the estimates) were used to evaluate the model fit. Due to the small sample size (52 subjects) no formal covariate analysis was attempted, although dependence of model parameters on weight, dose, and sex was investigated using diagnostic plots or by inclusion in the model. Ability of the model to describe strong covariate relationships identified by the model was tested by stratifying the diagnostic plots and model evaluation procedures by the covariates of interest. Specifically, the diagnostics and the predictive check procedures were stratified by dose (cohort).
Of the models evaluated, a linear 2-compartment with individual random effects on clearance (CL), central volume (Vc), peripheral volume (VP), inter-compartment clearance (Q), and proportional residual variability) best described the observed ADC data and advanced for further development of the combined ADC-free payload model. The free payload was described by a 1-compartment model with random effects on free payload clearance (CLTOX) and volume (VTOX) parameters with the input (from ADC) to both the central and delay compartments, with the random effects on the delay rate constant Ktr, CLTOX, and VTOX. The final model (Model 151) was selected based on diagnostics and goodness-of-fit and used to estimate MGC018 PK parameters. According to the model, elimination from the ADC was directed to the free payload, to the delay and central free payload compartments. Approximately equal fractions of ADC elimination went to each of these compartments. […] Thus, the free payload kinetics were defined by the kinetics of ADC and delay between ADC elimination and input to the free payload central compartment

A375.S2 melanoma cells = test: Anti-tumor activity against subcutaneously implanted A375.S2 xenograft in SCID CES1c-KO mouse model; type: in vivo, SCID CES1c-KO mice
Experimental: In brief, ˜5×10^6 A375.S2 tumor cells (suspended in 1:1 media and MATRIGEL®) were subcutaneously implanted into the flank of female SCID CES1c-KO mice (Charles River Laboratories). When tumors had reached a volume of approximately 70-255 mm^3 (average 124 mm^3) on day 22, the mice were randomized and MGC018 or control vehicle were administered intravenously. In these studies, mice were administered either a single dose (1 mg/kg or 3 mg/kg, QW×1) of MGC018 or a fractionated dose of MGC018 (0.3 mg/kg or 1 mg/kg) once a week for 4 weeks (QW×4W). Vehicle was administered as a control on day 22. Tumors were measured twice weekly by orthogonal measurements with electronic calipers, with tumor volumes calculated as: (length×width×height)/2. The tumor volume (relative to control) was determined (“T/C”). A finding that the tumor volume of treated animals had decreased to ≤5 mm^3 during the study period was considered to denote a Complete Regression (“CR”) and a Partial Regression (“PR”) was defined when tumors were reduced by 50% or greater from day of dosing at any point during the study.

[2] = 0.3 mg/kg, QW × 4W, intravenous

Question: With “MGC018: B7-H3-ADC: Light and Heavy Chain of anti-B7-H3 hmAb-A (SEQ ID NO:19, 20) conjugated via maleimide, valine-citrulline, para-aminobenzyloxycarbonyl linker to seco-DUBA payload” as the substance, how does the “% T/C at Day 44” value (Calu-6 lung cancer cells; [2]) read?
Answer: 78%

Question: What about the “Anti-Tumor Activity” value (Calu-6 lung cancer cells; [2]) of the same substance?
Answer: Active

Question: And the “CR (complete regression)” value (Calu-6 lung cancer cells; [2])?
Answer: 0/7

Question: What about the “PR (partial regression)” value (Calu-6 lung cancer cells; [2]) of the same substance?
Answer: 0/7

Question: And the “% T/C at Day 44” value (Calu-6 lung cancer cells; 1 mg/kg, QW × 4W, intravenous)?
Answer: 30%

Question: And the “Anti-Tumor Activity” value (Calu-6 lung cancer cells; 1 mg/kg, QW × 4W, intravenous)?
Answer: Active

Question: What about the “CR (complete regression)” value (Calu-6 lung cancer cells; 1 mg/kg, QW × 4W, intravenous) of the same substance?
Answer: 0/7

Question: What about the “PR (partial regression)” value (Calu-6 lung cancer cells; 1 mg/kg, QW × 4W, intravenous) of the same substance?
Answer: 0/7

Question: And the “% T/C at Day 44” value (Calu-6 lung cancer cells; 3 mg/kg, QW × 4W, intravenous)?
Answer: 17%

Question: And the “Anti-Tumor Activity” value (Calu-6 lung cancer cells; 3 mg/kg, QW × 4W, intravenous)?
Answer: Active

Question: What about the “CR (complete regression)” value (Calu-6 lung cancer cells; 3 mg/kg, QW × 4W, intravenous) of the same substance?
Answer: 0/7

Question: And the “PR (partial regression)” value (Calu-6 lung cancer cells; 3 mg/kg, QW × 4W, intravenous)?
Answer: 2/7

Question: What about the “% T/C at Day 44” value (Calu-6 lung cancer cells; 12 mg/kg, QW × 1, intravenous) of the same substance?
Answer: 6%

Question: And the “CR (complete regression)” value (Calu-6 lung cancer cells; 12 mg/kg, QW × 1, intravenous)?
Answer: 0/7

Question: And the “PR (partial regression)” value (Calu-6 lung cancer cells; 12 mg/kg, QW × 1, intravenous)?
Answer: 2/7

Question: What about the “anti-tumor activity of fractionated dose compared with single dose” value (Calu-6 lung cancer cells; fractionated 0.3, 1 and 3 mg/kg QW×4W vs single 12 mg/kg QW×1) of the same substance?
Answer: near equivalent anti-tumor activity

Question: And the “central volume (V)” value ([1]; ADC, typical 75 kg subject)?
Answer: 3.72 L

Question: What about the “clearance (CL)” value ([1]; ADC, typical 75 kg subject) of the same substance?
Answer: 1.68 L/day

Question: And the “distribution half-life (t1/2 dist)” value ([1]; ADC, typical 75 kg subject)?
Answer: 35.5 h

Question: What about the “inter-compartment clearance (Q)” value ([1]; ADC, typical 75 kg subject) of the same substance?
Answer: 0.0549 L/day

Question: And the “peripheral volume (Vp)” value ([1]; ADC, typical 75 kg subject)?
Answer: 0.700 L

Question: What about the “terminal half-life (t1/2 term)” value ([1]; ADC, typical 75 kg subject) of the same substance?
Answer: 220 h

Question: And the “half-life corresponding to delay rate constant” value ([1]; Model 151)?
Answer: 130 h

Question: What about the “delay rate constant (Ktr)” value ([1]; delay between ADC elimination and input to free payload central compartment, Model 151) of the same substance?
Answer: 0.128 day⁻¹

Question: What about the “free payload elimination rate constant KTOX=CLTOX/VTOX” value ([1]; free payload, Model 151) of the same substance?
Answer: 52.5 day⁻¹

Question: What about the “half-life corresponding to free payload elimination rate constant” value ([1]; free payload, Model 151) of the same substance?
Answer: about 20 minutes

Question: And the “% T/C at Day 53” value (A375.S2 melanoma cells; [2])?
Answer: 6%

Question: And the “CR (complete regression)” value (A375.S2 melanoma cells; [2])?
Answer: 0/7

Question: And the “PR (partial regression)” value (A375.S2 melanoma cells; [2])?
Answer: 4/7

Question: What about the “% T/C at Day 53” value (A375.S2 melanoma cells; 1 mg/kg, QW × 1, intravenous) of the same substance?
Answer: 5%

Question: And the “CR (complete regression)” value (A375.S2 melanoma cells; 1 mg/kg, QW × 1, intravenous)?
Answer: 0/7

Question: What about the “PR (partial regression)” value (A375.S2 melanoma cells; 1 mg/kg, QW × 1, intravenous) of the same substance?
Answer: 7/7

Question: And the “% T/C at Day 53” value (A375.S2 melanoma cells; 1 mg/kg, QW × 4W, intravenous)?
Answer: 1%

Question: What about the “CR (complete regression)” value (A375.S2 melanoma cells; 1 mg/kg, QW × 4W, intravenous) of the same substance?
Answer: 6/7

Question: And the “PR (partial regression)” value (A375.S2 melanoma cells; 1 mg/kg, QW × 4W, intravenous)?
Answer: 7/7

Question: What about the “% T/C at Day 53” value (A375.S2 melanoma cells; 3 mg/kg, QW × 1, intravenous) of the same substance?
Answer: 1%

Question: And the “CR (complete regression)” value (A375.S2 melanoma cells; 3 mg/kg, QW × 1, intravenous)?
Answer: 7/7

Question: What about the “PR (partial regression)” value (A375.S2 melanoma cells; 3 mg/kg, QW × 1, intravenous) of the same substance?
Answer: 7/7

Question: And the “anti-tumor activity of fractionated dose compared with single dose” value (A375.S2 melanoma cells; fractionated 0.3 and 1 mg/kg QW×4W vs single 1 or 3 mg/kg QW×1)?
Answer: near equivalent anti-tumor activity
